Results on 11 compounds are retold here after the supplement of paper PMC4862054.

Structures are written as SMILES.

Holding throughout (settings): incubation time: 72 h
Assay [1] relates to Hs578T. As to the kind of experiment: normalised viability (% of control), CellTiter-Blue; higher = more viable cells (about 100 = DMSO control). A digest of the protocol:
(§1)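 Breast cancer cell lines in 20 µl suspension were seeded onto 384-well plates pre-loaded with compound dissolved in 5 µl medium, then incubated 72 h. CellTiter-Blue reagent (2.5 µl) was added for 2 h at 37 °C and fluorescence read at 560/590 nm. Each plate was normalised to vehicle (100) and a positive kill control (0), with Z'-factor quality control. The value is normalised viability at one listed concentration of the series.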

The subject of assay [2] is MDA-MB-453. The description is as above. The gist of the method:
as §1

Assay [3] has as its system BT-474. Described as above. A digest of the protocol:
as §1

Assay [4] has as its system CAL-148. The description is as above. A digest of the protocol:
as §1

Assay [5] concerns MDA-MB-436. Described as above. The gist of the method:
as §1

In assay [6] the test system is HCC1143. The description is as above. A digest of the protocol: as §1
For assay [7], the system named is CAL-51. Described as above. The gist of the method:
as §1

Assay [8] concerns MFM-223. The assay is described as above. The gist of the method: as §1
Assay [9] concerns HCC1599. The assay is described as above. The gist of the method: as §1
In assay [10] the test system is CAL-85-1. The assay is described as above. A digest of the protocol: as §1
In assay [11] the test system is DU-4475. The description is as above. The gist of the method:
as §1

For assay [12], the system named is CAL-120. The assay is described as above. A digest of the protocol: as §1
Assay [13] relates to HDQ-P1. Described as above. A digest of the protocol:
as §1

Assay [14] has as its system HCC1937. The description is as above. The gist of the method: as §1
Assay [15] relates to SK-BR-3. The assay is described as above. The gist of the method:
as §1

Assay [16] deals with BT-549. The assay is described as above. A digest of the protocol:
as §1

For assay [17], the system named is MDA-MB-231. The description is as above. The gist of the method: as §1
The test system of assay [18] is MDA-MB-468. The description is as above. The gist of the method: as §1
For assay [19], the system named is CAL-148. As to the kind of experiment: normalised response (% of control), CellTox Green; higher = less cell death (100 = DMSO, 0 = benzethonium chloride kill control). A digest of the protocol: (§2)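 A 20 µl suspension of breast cancer cells was seeded into each well of 384-well plates containing compound at 5 concentrations in 10-fold steps over a compound-specific 10,000-fold range. After 72 h incubation, CellTox Green fluorescence (485/520 nm) was read first, and CellTiter-Glo luminescence was read after 10 min at room temperature. Each plate was normalised against 0.1 % DMSO (100) and a positive kill control (0), and each value is the normalised signal at one concentration.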

In assay [20] the test system is DU-4475. Described as above. The gist of the method:
as §2

Assay [21] relates to MDA-MB-468. The description is as above. A digest of the protocol:
as §2

The subject of assay [22] is CAL-148. The assay is described as follows: drug sensitivity score (DSS), CellTiter-Glo (DSS (AUC-based score)); higher = stronger drug effect (viability inhibition or cytotoxicity); extreme values may be limits of the assay. A digest of the protocol:
(§3)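 Breast cancer cell lines, seeded as 20 µl suspension, were incubated 72 h with compound in 384-well plates at 5 concentrations in 10-fold steps over a 10,000-fold range set for each compound. Fluorescence from CellTox Green was read at 485/520 nm before CellTiter-Glo luminescence, which was read after 10 min at room temperature. Every plate was normalised to 0.1 % DMSO and a positive kill control, and the drug sensitivity score was taken from the area under the fitted dose-response curve.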
For orientation: In ATP-based viability assays light output follows the ATP content of the culture.

Assay [23] deals with MDA-MB-436. The assay is described as above. A digest of the protocol:
as §3

With `Cc1c(C(=O)Nc2ccc(N3C[C@@H](C)O[C@@H](C)C3)nc2)cccc1-c1ccc(OC(F)(F)F)cc1` [NVP-LDE225], the normalised viability in assay [1] (10 nM) came to 118%; in [1] (1000 nM) it was 107%; in assay [1] (10000 nM) it was 87%; in assay [2] (3 nM) it was 98.9%; in assay [2] (30 nM), 88.7%; in [2] (100 nM), 105%. For the same compound, the normalised viability in [3] (10 nM) is 96.5%; in assay [3] (1000 nM), 101%; in [3] (10000 nM), 63.5%; in [4] (3 nM) it was 99.6%; in [4] (30 nM) it was 101%; in assay [4] (100 nM) it was 106%. The normalised viability in assay [5] (10 nM) was 83%; in assay [5] (1000 nM) it was 29.2%; in [5] (10000 nM), 67.3%; in assay [6] (10 nM) it was 108%; in assay [6] (1000 nM), 102%; in assay [6] (10000 nM), 96.4%. Further, the normalised viability in [7] (3 nM) came to 105%; in [7] (30 nM), 101%; in assay [7] (100 nM), 101%; in [8] (10 nM), 93.5%; in [8] (1000 nM), 93.8%; in assay [8] (10000 nM), 88.2%. Besides, the normalised viability in [9] (10 nM) was determined as 105%; in [9] (1000 nM), 90.5%; in [9] (10000 nM), 102%; in assay [10] (3 nM), 100%; in assay [10] (30 nM), 86%; in [10] (100 nM) it was 104%. Besides, the normalised viability was 105% in [11] (3 nM); 112% in [11] (30 nM); 96% in [11] (100 nM); 99.9% in assay [12] (10 nM); 92.7% in assay [12] (1000 nM); 97% in assay [12] (10000 nM). In addition, the normalised viability in assay [13] (3 nM) came out at 76.2%; in assay [13] (30 nM) it was 84%; in [13] (100 nM), 84.9%; in assay [14] (10 nM), 38.8%; in assay [14] (1000 nM), 92.7%; in [14] (10000 nM), 82.1%. The normalised viability in assay [15] (10 nM) was 104%; in assay [15] (1000 nM) it was 102%; in assay [15] (10000 nM) it was 111%; in assay [16] (10 nM) it was 113%; in [16] (1000 nM), 96%; in [16] (10000 nM), 97.3%. Also, the normalised viability was determined as 121% in assay [17] (10 nM); 102% in [17] (1000 nM); 82.9% in [17] (10000 nM); 109% in assay [18] (10 nM); 109% in [18] (1000 nM); 91.9% in [18] (10000 nM).
Consider `CO[C@H]1C[C@@H]2CC[C@@H](C)[C@@](O)(O2)C(=O)C(=O)N2CCCC[C@H]2C(=O)O[C@H]([C@H](C)C[C@@H]2CC[C@@H](O)[C@H](OC)C2)CC(=O)[C@H](C)/C=C(\C)[C@@H](O)[C@@H](OC)C(=O)[C@H](C)C[C@H](C)/C=C/C=C/C=C/1C` [Sirolimus] (100 nM), for which the normalised response in assay [19] was 94.4%; in assay [20], 98.5%; in [21] it was 141%.
Turning to `CN1CCN(c2nc(C3=C(c4c[nH]c5ccccc45)C(=O)NC3=O)c3ccccc3n2)CC1` [Sotrastaurin] (1000 nM), the normalised response is 58.2% in assay [19], 99.8% in [20] and 215% in assay [21].
For `CC/C(=C(\c1ccccc1)c1ccc(OCCN(C)C)cc1)c1ccccc1` [Tamoxifen] (1000 nM) the same measures were 106%, 105% and 148%.
With `CC/C(=C(\c1ccccc1)c1ccc(OCCN(C)C)cc1)c1ccccc1` [Tamoxifen] (10000 nM), the normalised response in assay [19] is 80.1%; in assay [20], 91.1%; in assay [21], 7.06%.
For `COc1cc2c(N3CCN(C(=O)Nc4ccc(OC(C)C)cc4)CC3)ncnc2cc1OCCCN1CCCCC1` [Tandutinib] (100 nM), the normalised response in [19] was 100%; in [20], 98%; in [21], 134%.
Turning to `Cn1nnc2c(C(N)=O)ncn2c1=O` [Temozolomide] (1000 nM), the normalised response in assay [19] is 95.8%; in assay [20] it was 100%; in assay [21] it was 106%.
Regarding `Cn1nnc2c(C(N)=O)ncn2c1=O` [Temozolomide] (10000 nM), the figures for the normalised response in [19], in assay [20] and in assay [21] were 102%, 98.2% and 103%, respectively.
In the case of `CN1CCc2c(c3ccccc3n2Cc2ccc(C(=O)NO)cc2)C1` [Tubastatin A], the drug sensitivity score in assay [22] and in assay [23] was 0 throughout.
`CC[C@@H]1C(=O)N(C)c2cnc(Nc3ccc(C(=O)N[C@H]4CC[C@H](N5CCN(CC6CC6)CC5)CC4)cc3OC)nc2N1C(C)C` [Volasertib] (100 nM): the normalised response in assay [19] came out at 31.8%; in [20], 93.2%; in assay [21] it was 85.1%.
For the compound `CC[C@@H]1C(=O)N(C)c2cnc(Nc3ccc(C(=O)N[C@H]4CC[C@H](N5CCN(CC6CC6)CC5)CC4)cc3OC)nc2N1C(C)C` [Volasertib] (1000 nM), the normalised response in [19] stood at 85.8%; in assay [20], 90.4%; in assay [21], 118%.
